Data as given in patent US9023789B2, “Amylin analogs and pharmaceutical compositions thereof” (Novo Nordisk A/S, priority 2012, dated 2015).
In brackets after ≈: the same amount, converted by molar mass. Read-outs that look alike come from different tables or passages of the source. Numbered stars: 1 amine (or outer) side, 2 acyl side, 3 side chain; on linkers, the order of the positions; unused ones are H or OH. Bridge positions count the residues as written; N and C are the ends. Side chains are listed from the residue outwards. Peptide text beside a SMILES is read from it. * marks the point of attachment. C20 diacid = O=C(O)CCCCCCCCCCCCCCCCCCC(=O)*; γGlu = O=C(O)[C@H](CCC(=O)[*:2])N[*:1]; AEEA = NCCOCCOCC(=O)O

Columns and labels:
[1] = ASSAY (IV) determination of solubility; type: physicochemical
Method in brief: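 Polypeptide in water at […] mixed 1:1 with 100 mM buffers of pH 3.0-8.0 (glycylglycine pH 3-5, bistrispropane pH 6-8). Held 18 h at room temperature, then centrifuged; concentration remaining in solution measured by UPLC.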

[2] = ASSAY (III) ThT fibrillation assay for physical stability; type: physicochemical
Method in brief: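 Formulations with 1 μM ThT, pH adjusted as required, incubated at 37 °C with 960 rpm orbital shaking; fluorescence (ex 444/em 485 nm) read every 20 min. Fibrillation reported as mean ThT fluorescence ± SD of 4–8 replicates at time points; polypeptide concentration measured by reverse-phase HPLC before and after, post-centrifugation.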

rat calcitonin receptor = target: T1, rat calcitonin receptor (Rattus norvegicus, UniProt P32214); assay: ASSAY (VIII) binding to the rat calcitonin receptor; settings: Table 7, read-out: rCTR bind IC50
T1 construct: expressed in transfected cells; host or cells: BHK tk'ts 13 (transient, FuGENE 6), membranes
T1 sequence (P32214 25-479 isoform P32214-2 limits assumed): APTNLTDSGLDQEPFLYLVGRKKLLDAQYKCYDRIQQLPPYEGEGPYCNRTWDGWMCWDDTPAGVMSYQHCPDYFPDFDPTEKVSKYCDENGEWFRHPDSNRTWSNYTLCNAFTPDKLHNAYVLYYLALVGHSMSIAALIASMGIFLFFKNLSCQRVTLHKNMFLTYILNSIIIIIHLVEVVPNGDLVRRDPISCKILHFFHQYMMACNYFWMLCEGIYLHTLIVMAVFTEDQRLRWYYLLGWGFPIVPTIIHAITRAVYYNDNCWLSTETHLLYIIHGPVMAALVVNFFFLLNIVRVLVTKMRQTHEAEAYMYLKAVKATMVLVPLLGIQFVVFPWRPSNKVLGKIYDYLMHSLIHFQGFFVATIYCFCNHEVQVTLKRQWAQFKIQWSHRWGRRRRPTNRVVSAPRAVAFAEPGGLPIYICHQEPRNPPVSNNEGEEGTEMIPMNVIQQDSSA
Method in brief: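 Membranes were prepared from BHK tk′ts 13 cells transiently transfected with rat calcitonin receptor. Cells were grown in DMEM with 10% FBS and harvested approximately 48 hours after transfection.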

[3] = bistrispropane buffer, pH 6.5, read-out: Solubility pH 6.5 Concentration
[4] = bistrispropane buffer, pH 7.5, read-out: Solubility pH 7.5 Concentration
[5] = bistrispropane buffer, pH 6.0, read-out: Solubility pH 6.0 Concentration
[6] = bistrispropane buffer, pH 7.0, read-out: Solubility pH 7.0 Concentration
[7] = bistrispropane buffer, pH 8.0, read-out: Solubility pH 8.0 Concentration
[8] = glycylglycine buffer, pH 3.0, read-out: Solubility pH 3.0 Concentration
[9] = glycylglycine buffer, pH 4.0, read-out: Solubility pH 4.0 Concentration
[10] = glycylglycine buffer, pH 5.0, read-out: Solubility pH 5.0 Concentration

| SMILES | solubility at 18 h [1, 3] [µM] | solubility at 18 h [1, 4] [µM] | solubility at 18 h [1, 5] [µM] | solubility at 18 h [1, 6] [µM] | solubility at 18 h [1, 7] [µM] | solubility at 18 h [1, 8] [µM] | solubility at 18 h [1, 9] [µM] | solubility at 18 h [1, 10] [µM] | ThT pH 4.0 lag time (h) [2] [h] | IC50 (rat calcitonin receptor) [nM] | Solubility pH 6.5 Concentration ([1]; pH 6.5 (Table 9a)) | Solubility pH 7.0 Concentration ([1]; pH 7.0 (Table 9a)) |
| --- | --- | --- | --- | --- | --- | --- | --- | --- | --- | --- | --- | --- |
| CC[C@H](C)[C@H](NC(=O)[C@H](C)NC(=O)CNC(=O)[C@H](Cc1ccccc1)NC(=O)[C@H](CC(N)=O)NC(=O)[C@@H]1CCCN1C(=O)[C@H](CO)NC(=O)[C@H](CO)NC(=O)[C@H](Cc1c[nH]cn1)NC(=O)[C@H](CCCNC(=N)N)NC(=O)[C@H](CC(C)C)NC(=O)[C@H](Cc1ccccc1)NC(=O)[C@H](Cc1c[nH]cn1)NC(=O)[C@H](C)NC(=O)[C@H](CC(C)C)NC(=O)[C@H](CCCNC(=N)N)NC(=O)[C@H](CCC(N)=O)NC(=O)[C@@H](NC(=O)[C@H](C)NC(=O)[C@@H]1CSSC[C@H](NC(=O)[C@@H](N)CCCCNC(=O)CC[C@H](NC(=O)CC[C@H](NC(=O)CCCCCCCCCCCCCCCCCCC(=O)O)C(=O)O)C(=O)O)C(=O)N[C@@H](CC(N)=O)C(=O)N[C@@H]([C@@H](C)O)C(=O)N[C@@H](C)C(=O)N[C@@H]([C@@H](C)O)C(=O)N1)[C@@H](C)O)C(=O)N1CCC[C@H]1C(=O)N[C@@H](CO)C(=O)N[C@@H](CO)C(=O)N[C@H](C(=O)N[C@@H](CC(N)=O)C(=O)N[C@H](C(=O)NCC(=O)N[C@@H](CO)C(=O)N[C@@H](CC(N)=O)C(=O)N[C@H](C(=O)N[C@@H](Cc1ccc(O)cc1)C(N)=O)[C@@H](C)O)C(C)C)[C@@H](C)O [Example 92] | ≥ 200 | ≥ 200 | ≥ 200 | ≥ 200 | ≥ 200 | ≥ 200 | ≥ 200 | ≥ 200 | 8 | 105 | – | – |
| CC[C@H](C)[C@H](NC(=O)[C@H](C)NC(=O)CNC(=O)[C@H](Cc1ccccc1)NC(=O)[C@H](CC(N)=O)NC(=O)[C@@H]1CCCN1C(=O)[C@H](CO)NC(=O)[C@H](CO)NC(=O)[C@H](Cc1c[nH]cn1)NC(=O)[C@H](CCCNC(=N)N)NC(=O)[C@H](CC(C)C)NC(=O)[C@H](Cc1ccccc1)NC(=O)[C@H](CC(N)=O)NC(=O)[C@H](C)NC(=O)[C@H](CC(C)C)NC(=O)[C@H](CCCNC(=N)N)NC(=O)[C@H](CCC(N)=O)NC(=O)[C@@H](NC(=O)[C@H](C)NC(=O)[C@@H]1CSSC[C@H](NC(=O)[C@@H](N)CCCCNC(=O)COCCOCCNC(=O)CC[C@H](NC(=O)CCCCCCCCCCCCCCCCCCC(=O)O)C(=O)O)C(=O)N[C@@H](CC(N)=O)C(=O)N[C@@H]([C@@H](C)O)C(=O)N[C@@H](C)C(=O)N[C@@H]([C@@H](C)O)C(=O)N1)[C@@H](C)O)C(=O)N1CCC[C@H]1C(=O)N[C@@H](CO)C(=O)N1CCC[C@H]1C(=O)N[C@H](C(=O)N1CCC[C@H]1C(=O)N[C@H](C(=O)NCC(=O)N[C@@H](CO)C(=O)N[C@@H](CC(N)=O)C(=O)N[C@H](C(=O)N[C@@H](Cc1ccc(O)cc1)C(N)=O)[C@@H](C)O)C(C)C)[C@@H](C)O [Example 54] (H-K([AEEA-γGlu-C20 diacid])CNTATCATQRLANFLRHSSPNFGAIPSPTPVGSNTY-NH2; disulfide 2-7; N-terminus assumed) | ≥ 200 | ≥ 200 | ≥ 200 | ≥ 200 | ≥ 200 | ≥ 200 | ≥ 200 | ≥ 200 | 15 | 8.79 | – | – |

Now from value to molecule:

| solubility at 18 h [1, 3] [µM] | solubility at 18 h [1, 4] [µM] | solubility at 18 h [1, 5] [µM] | solubility at 18 h [1, 6] [µM] | solubility at 18 h [1, 7] [µM] | solubility at 18 h [1, 8] [µM] | solubility at 18 h [1, 9] [µM] | solubility at 18 h [1, 10] [µM] | ThT pH 4.0 lag time (h) [2] [h] | IC50 (rat calcitonin receptor) [nM] | Solubility pH 6.5 Concentration ([1]; pH 6.5 (Table 9a)) | Solubility pH 7.0 Concentration ([1]; pH 7.0 (Table 9a)) | SMILES |
| --- | --- | --- | --- | --- | --- | --- | --- | --- | --- | --- | --- | --- |
| ≥ 200 | 96 (≈ 438 µg/mL) | ≥ 200 | ≥ 200 | 48 (≈ 219 µg/mL) | ≥ 200 | ≥ 200 | ≥ 200 | 38 | 10.3 | ≧200 μM | ≧200 μM | CC[C@H](C)[C@H](NC(=O)[C@H](C)NC(=O)CNC(=O)[C@H](Cc1ccccc1)NC(=O)[C@H](CC(N)=O)NC(=O)[C@@H]1CCCN1C(=O)[C@H](CO)NC(=O)[C@H](CO)NC(=O)[C@H](Cc1c[nH]cn1)NC(=O)[C@H](CCCNC(=N)N)NC(=O)[C@H](CC(C)C)NC(=O)[C@H](Cc1ccccc1)NC(=O)[C@H](CC(N)=O)NC(=O)[C@H](C)NC(=O)[C@H](CC(C)C)NC(=O)[C@H](CCCNC(=N)N)NC(=O)[C@H](CCC(N)=O)NC(=O)[C@@H](NC(=O)[C@H](C)NC(=O)[C@@H]1CSSC[C@H](NC(=O)[C@@H](N)CCCCNC(=O)COCCOCCNC(=O)CC[C@H](NC(=O)CCCCCCCCCCCCCCCCCCC(=O)O)C(=O)O)C(=O)N[C@@H](CC(N)=O)C(=O)N[C@@H]([C@@H](C)O)C(=O)N[C@@H](C)C(=O)N[C@@H]([C@@H](C)O)C(=O)N1)[C@@H](C)O)C(=O)N1CCC[C@H]1C(=O)N[C@@H](CO)C(=O)N[C@@H](CO)C(=O)N[C@H](C(=O)N[C@@H](CC(N)=O)C(=O)N[C@H](C(=O)NCC(=O)N1CCC[C@H]1C(=O)N[C@@H](Cc1c[nH]cn1)C(=O)N[C@H](C(=O)N[C@@H](Cc1ccc(O)cc1)C(N)=O)[C@@H](C)O)C(C)C)[C@@H](C)O [Example 58] (H-K([AEEA-γGlu-C20 diacid])CNTATCATQRLANFLRHSSPNFGAIPSSTNVGPHTY-NH2; disulfide 2-7) |
| 131 (≈ 594 µg/mL) | ≥ 200 | 64 (≈ 290 µg/mL) | 198 (≈ 898 µg/mL) | – | – | 7 (≈ 31.7 µg/mL) | – | 0 | 86.8 | – | – | CC[C@H](C)[C@H](NC(=O)[C@H](C)NC(=O)CNC(=O)[C@@H]1CCCN1C(=O)[C@H](CC(N)=O)NC(=O)[C@H](CC(N)=O)NC(=O)[C@H](CO)NC(=O)[C@H](CO)NC(=O)[C@H](Cc1c[nH]cn1)NC(=O)[C@H](CCCNC(=N)N)NC(=O)[C@H](CC(C)C)NC(=O)[C@H](Cc1ccccc1)NC(=O)[C@H](CCC(=O)O)NC(=O)[C@H](C)NC(=O)[C@H](CC(C)C)NC(=O)[C@H](CCCNC(=N)N)NC(=O)[C@H](CCC(N)=O)NC(=O)[C@@H](NC(=O)[C@H](C)NC(=O)[C@@H]1CSSC[C@H](NC(=O)[C@@H](N)CCCCNC(=O)CC[C@H](NC(=O)CC[C@H](NC(=O)CCCCCCCCCCCCCCCCCCC(=O)O)C(=O)O)C(=O)O)C(=O)N[C@@H](CC(N)=O)C(=O)N[C@@H]([C@@H](C)O)C(=O)N[C@@H](C)C(=O)N[C@@H]([C@@H](C)O)C(=O)N1)[C@@H](C)O)C(=O)N[C@@H](CC(C)C)C(=O)N[C@@H](CO)C(=O)N[C@@H](CO)C(=O)N[C@H](C(=O)N[C@@H](CC(N)=O)C(=O)N[C@H](C(=O)NCC(=O)N1CCC[C@H]1C(=O)N[C@@H](CCC(=O)O)C(=O)N[C@H](C(=O)N[C@@H](Cc1ccc(O)cc1)C(N)=O)[C@@H](C)O)C(C)C)[C@@H](C)O [Example 126] (H-K([γGlu-γGlu-C20 diacid])CNTATCATQRLAEFLRHSSNNPGAILSSTNVGPETY-NH2; disulfide 2-7 (inferred); N-terminus assumed) |
| ≥ 200 | ≥ 200 | ≥ 200 | ≥ 200 | ≥ 200 | ≥ 200 | ≥ 200 | ≥ 200 | 11 | 44.8 | – | – | CC[C@H](C)[C@H](NC(=O)[C@H](C)NC(=O)CNC(=O)[C@H](Cc1ccccc1)NC(=O)[C@H](CC(N)=O)NC(=O)[C@@H]1CCCN1C(=O)[C@H](CO)NC(=O)[C@H](CO)NC(=O)[C@H](Cc1c[nH]cn1)NC(=O)[C@H](CCCNC(=N)N)NC(=O)[C@H](CC(C)C)NC(=O)[C@H](Cc1ccccc1)NC(=O)CNC(=O)[C@H](C)NC(=O)[C@H](CC(C)C)NC(=O)[C@H](CCCNC(=N)N)NC(=O)[C@H](CCC(N)=O)NC(=O)[C@@H](NC(=O)[C@H](C)NC(=O)[C@@H]1CSSC[C@H](NC(=O)[C@@H](N)CCCCNC(=O)COCCOCCNC(=O)CC[C@H](NC(=O)CCCCCCCCCCCCCCCCCCC(=O)O)C(=O)O)C(=O)N[C@@H](CC(N)=O)C(=O)N[C@@H]([C@@H](C)O)C(=O)N[C@@H](C)C(=O)N[C@@H]([C@@H](C)O)C(=O)N1)[C@@H](C)O)C(=O)N1CCC[C@H]1C(=O)N[C@@H](CO)C(=O)N[C@@H](CO)C(=O)N[C@H](C(=O)N1CCC[C@H]1C(=O)N[C@H](C(=O)NCC(=O)N[C@@H](CO)C(=O)N[C@@H](CC(N)=O)C(=O)N[C@H](C(=O)N[C@@H](Cc1ccc(O)cc1)C(N)=O)[C@@H](C)O)C(C)C)[C@@H](C)O [Example 71] (H-K([AEEA-γGlu-C20 diacid])CNTATCATQRLAGFLRHSSPNFGAIPSSTPVGSNTY-NH2; disulfide 2-7) |
